Assay results: patent US20220133837A1, “PEPTIDE INHIBITORS OF NF KAPPA B AND USE THEREOF IN TREATMENT OF COVID-19 AND INFLAMMATORY DISEASES” (priority 2020, published 2022)
Read-outs that look alike come from different tables or passages of the source. Non-standard residues stand in square brackets, D forms with d. Residues, ends and D or L forms follow the SMILES beside them. No end group written: not given here.

Columns and labels:
ILIA = type: cell-based, human; settings: control cells set at 1.000, cells harvested after 24 hours
TNFRSF9 = type: cell-based, human; settings: control cells set at 1.000, cells harvested after 24 hours
ACE2 receptor = type: cell-based, human; settings: control cells set at 1.000, cells harvested after 24 hours
CCL5 = type: cell-based, human; settings: control cells set at 1.000, cells harvested after 24 hours
CCL2 = type: cell-based, human; settings: control cells set at 1.000, cells harvested after 24 hours
IL1B = type: cell-based, human; settings: control cells set at 1.000, cells harvested after 24 hours
[1] = test system: carrageenan (CAR) induced inflammation model; test: Carrageenan (CAR) induced paw edema model; type: in vivo; settings: rat, peptide 70 ng, 1 nanomole injected 30 minutes after CAR; for Edema, change in paw volume after CAR injection: sub-plantar CAR 100 μL of 1% suspension, plethysmometer hourly for 24 h, versus control animals
Text: The anti-inflammatory activity of YMAP[D]EV (SEQ ID NO:116) was also examined in a classical carrageenan (CAR) induced inflammation model (Ivan G. Otterness, Peter F. Moore, Carrageenan foot edema test, Methods in Enzymology, Academic Press, Volume 162, 1988, Pages 320-327, (see URL www.sciencedirect.com/science/article/pii/0076687988620866); Fehrenbacher J C et al., Models of inflammation: Carrageenan- or complete Freund's Adjuvant (CFA)-induced edema and hypersensitivity in the rat. Curr Protoc Pharmacol. 2012 March; Chapter 5m Unit5.4, doi:10.1002/0471141755.ph0504s56. PMID: 22382999; PMCID: PMC4683998.). Paw edema was induced by a sub-plantar injection of CAR (100 μL of a 1% suspension in 0.85% saline). In the treatment group, YMAP[D]EV (SEQ ID NO:116) (70 ng, 1 nanomole) was injected 30 minutes after CAR injection. Changes in paw volume were measured using a plethysmometer immediately before CAR injection, and then at hourly intervals for 24 h. Edema was expressed as change in paw volume (mL) after CAR injection relative to the pre-injection value for each rat.

IL6 = type: cell-based, human; settings: control cells set at 1.000, cells harvested after 24 hours
TNF = type: cell-based, human; settings: control cells set at 1.000, cells harvested after 24 hours
TMPRSS2 = type: cell-based, human; settings: control cells set at 1.000, cells harvested after 24 hours
CXCL8 = type: cell-based, human; settings: control cells set at 1.000, cells harvested after 24 hours
NFKB2 = type: cell-based, human; settings: control cells set at 1.000, cells harvested after 24 hours
TNFRSF1A = type: cell-based, human; settings: control cells set at 1.000, cells harvested after 24 hours
NFKB1 = type: cell-based, human; settings: control cells set at 1.000, cells harvested after 24 hours

Molecule: ANVAENA [PEP1, L-alanyl-L-asparaginyl-L-valyl-L-alanyl-L-glutamyl-L-asparaginyl-L-alanine]
- ILIA RNA expression, ratio of treated cells to control cells (ILIA; Affymetrix gene arrays): 0.036
- TNFRSF9 RNA expression, ratio of treated cells to control cells (TNFRSF9; Affymetrix gene arrays): 1.136
- ACE2 receptor RNA expression, ratio of treated cells to control cells (ACE2 receptor; Affymetrix gene arrays): 0.632
- CCL5 RNA expression, ratio of treated cells to control cells (CCL5; Affymetrix gene arrays): 0.456
- CCL2 RNA expression, ratio of treated cells to control cells (CCL2; Affymetrix gene arrays): 1.298
- IL1B RNA expression, ratio of treated cells to control cells (IL1B; Affymetrix gene arrays): 0.691
- Edema, change in paw volume after CAR injection [1]: nearly identical data
- IL6 RNA expression, ratio of treated cells to control cells (IL6; Affymetrix gene arrays): 1.135
- TNF RNA expression, ratio of treated cells to control cells (TNF; Affymetrix gene arrays): 0.349
- TMPRSS2 RNA expression, ratio of treated cells to control cells (TMPRSS2; Affymetrix gene arrays): 0.525
- CXCL8 RNA expression, ratio of treated cells to control cells (CXCL8; Affymetrix gene arrays): 1.135
- NFKB2 RNA expression, ratio of treated cells to control cells (NFKB2; Affymetrix gene arrays): 0.851
- TNFRSF1A RNA expression, ratio of treated cells to control cells (TNFRSF1A; Affymetrix gene arrays): 1.415
- NFKB1 RNA expression, ratio of treated cells to control cells (NFKB1; Affymetrix gene arrays): 0.927

Molecule: CSCC[C@H](NC(=O)[C@@H](N)Cc1ccc(O)cc1)C(=O)N[C@@H](C)C(=O)N1CCC[C@H]1C(=O)N[C@H](CCC(=O)O)C(=O)N[C@H](C(=O)O)C(C)C [PEP2, L-tyrosyl-L-methionyl-L-alanyl-L-prolyl-D-glutamyl-L-valine] (H-YMAP[dE]V-OH)
- ILIA RNA expression, ratio of treated cells to control cells (ILIA; DriverMap gene analysis): 0.260
- TNFRSF9 RNA expression, ratio of treated cells to control cells (TNFRSF9; DriverMap gene analysis): 0.007
- ACE2 receptor RNA expression, ratio of treated cells to control cells (ACE2 receptor; DriverMap gene analysis): 1.000
- CCL5 RNA expression, ratio of treated cells to control cells (CCL5; DriverMap gene analysis): 0.0003
- CCL2 RNA expression, ratio of treated cells to control cells (CCL2; DriverMap gene analysis): 0.059
- IL1B RNA expression, ratio of treated cells to control cells (IL1B; DriverMap gene analysis): 0.010
- Duration of the effect on edema ([1]; 24-hour period of observation): ≥ 24 h
- Edema, change in paw volume after CAR injection [1]: marked decrease in edema within two hours
- IL6 RNA expression, ratio of treated cells to control cells (IL6; DriverMap gene analysis): 0.057
- TNF RNA expression, ratio of treated cells to control cells (TNF; DriverMap gene analysis): 0.015
- TMPRSS2 RNA expression, ratio of treated cells to control cells (TMPRSS2; DriverMap gene analysis): 1.000
- CXCL8 RNA expression, ratio of treated cells to control cells (CXCL8; DriverMap gene analysis): 0.0052
- NFKB2 RNA expression, ratio of treated cells to control cells (NFKB2; DriverMap gene analysis): 0.138
- TNFRSF1A RNA expression, ratio of treated cells to control cells (TNFRSF1A; DriverMap gene analysis): 0.752
- NFKB1 RNA expression, ratio of treated cells to control cells (NFKB1; DriverMap gene analysis): 0.243
